# Results as given in patent publication US20240181000A1, “LGG-DERIVED PEPTIDES AND METHODS OF USE THEREOF” (Ohio State Innovation Foundation, priority 2021, published 2024).
# No end group written: not given here.
# Legend:
# APEC = assay: Kinetic time-inhibition assay of synthesized peptides; format: cell-based, E. coli; conditions: 12 mM, 12 h
# Procedure: Peptides were added to the APEC suspension in a 96-well plate, and plate was incubated in TECAN Sunrise™ absorbance microplate reader at 37° C. with OD600 measurement set at every 30 min for 12 hr. The sequences in FIG. 7 are […] (SEQ ID NO: 5), […] (SEQ ID NO: 18), […] (SEQ ID NO: 21), […] (SEQ ID NO: 26), and […] (SEQ ID NO: 32).
# The five common highly abundant peptides in CFSs of both L. rhamnosus GG and B. lactis Bb12 ([…] (SEQ ID NO:5), […] (SEQ ID NO:18), […] (SEQ ID NO:21), […] (SEQ ID NO:26) and […] (SEQ ID NO:32)) were synthesized (GenScript, NJ, USA) and tested for anti-APEC activity by conducting kinetic time-inhibition assay as described previously. Briefly, peptides dissolved in dimethyl sulfoxide (DMSO) at 200 mM concentrations were added (12 mM; final concentration of 6% DMSO) to APEC suspension (10^5 CFU/mL; LB media) in a 96-well plate. The plate was then incubated in TECAN Sunrise™ absorbance microplate reader (NC, USA) at 37° C. with OD600 measurement set at every 30 mins for 12 h. Untreated APEC (0% DMSO) and APEC treated with 6% DMSO were included as controls. […] Three independent experiments were conducted.
# APEC O78 [1] = format: cell-based, E. coli
# Procedure: Anti-APEC activity determination: The anti-APEC activity of peptides was determined in LB broth following CLSI guidelines. Briefly, overnight grown APEC O78 was adjusted to 5×10^5 CFU/mL concentration in fresh LB media. One-hundred microliters of APEC suspension was aliquoted into the wells of the 96-well plate. Peptides were added to the wells at 6 mM and 12 mM concentrations and incubated at 37° C. in TECAN Sunrise™ absorbance microplate reader with kinetic absorbance measurement set at every 30 mins for 12 h. Sterile media and DMSO (solvent) were used as controls. The growth inhibitory activity of the peptides against APEC was calculated using the formula: (OD600 DMSO treated well−OD600 peptide treated well)/OD600 DMSO treated well×100%.
# The minimum inhibitory concentration (MIC) was determined for selected peptides (P1, P2, P3, and P4) using similar assay as above. Peptides were added to the wells of the 96-well plate at 6 mM, 9 mM, 12 mM, 15 mM, and 18 mM concentrations. The peptide concentration at which there is no visible APEC growth (no OD increase) was determined as MIC. Two independent experiments were conducted.
# Arginine and lysine substituted peptide analogues: The non-essential amino acid residues identified in each peptide were substituted with arginine/lysine to test whether these substitutions enhance the anti-APEC activity of peptides. The MICs of arginine and lysine substituted peptide analogues ([…] (SEQ ID NO:37), […] (SEQ ID NO:38), […] (SEQ ID NO:39), KDENK (SEQ ID NO:41), PDEKK (SEQ ID NO:42), KDEKK (SEQ ID NO:43), KHTAPK (SEQ ID NO:45), VKTAPK (SEQ ID NO:46), VHTKPK (SEQ ID NO:47), and KKTKPK (SEQ ID NO:48)) were determined as above and compared with original peptides.
# [2] = tested on: Salmonella enterica subsp. enterica serovar Enteritidis (SE); format: cell-based; conditions: subsp. enterica serovar Enteritidis (SE)
# Procedure: MIC was determined by selecting peptide concentration at which there is no increased growth (no increase in OD), given indication of no ST growth. An independent repeat experiment was conducted.
# Heat and protease tolerance of peptides: P1, P2, and P4 were heated for 6 minutes at 86° C. or treated with protease proteinase K, 200 μg/mL at 50° C. for 30 minutes. After which, the treated and/or heated peptides at their respective MICs were evaluated in the inhibition assay with Salmonella. The protocol from above was repeated in the Tecan with the same controls.
# To analyze the perceived efficacy of arginine and lysine substitutes reported in previous studies, specific amino acid residues in P1 and P2 were replaced with lysine or arginine to test if the alliterations enhanced anti-Salmonella (ST and SE) activity. The MICs of the arginine or lysine substituted peptides ([…] (SEQ ID NO:37), […] (SEQ ID NO:38), […] (SEQ ID NO:39), KDENK (SEQ ID NO:41), PDEKK (SEQ ID NO:42), KDEKK (SEQ ID NO:43), KHTAPK (SEQ ID NO:45)) were determined as described early. Two independent experiments were conducted to ensure accuracy.
# APEC O78 [3] = format: cell-based, E. coli; conditions: 12 h
# Procedure: FIGS. 13A-13C show the growth pattern of APEC O78 with and without peptide at 3-21 mM concentration. […] Various concentrations of peptides were added to the APEC suspension (5×10^5 CFU/mL) in a 96-well plate. The plate was incubated in a TECAN Sunrise™ absorbance microplate reader at 37° C., measuring the OD 600 set at every 30 mins for 12 hrs. After 12 hrs. incubation the bacteria were serially diluted and plated to count CFU/mL and calculated the inhibitory percentage using (Control-treated)/treated*100.
# FIGS. 14A-14B show the growth pattern of APEC O78, treated with a combination of peptides at 3-21 mM concentration with respect to no peptide control. […] The two peptides were added together to the APEC suspension (5×10^5 CFU/mL) in a 96-well plate. The plate was incubated at 37° C. in a TECAN Sunrise™ absorbance microplate reader, measuring the OD 600 set at every 30 mins for 12 hrs. After incubation, the bacteria were serially diluted and plated to measure CFU/mL and calculate the inhibitory percentage using (Control-treated)/treated*100.
# Intracellular APEC = assay: Effect of PN peptides on intracellular APEC; format: cell-based, E. coli
# Biofilm-embedded APEC = assay: Effect of PN peptides on biofilm embedded APEC; format: cell-based, E. coli; conditions: untreated 7.71 ± 0.72
# ST = assay: Minimal bactericidal concentration of PN-3 and PN-5; format: cell-based, Salmonella enterica
# Procedure: FIGS. 30A-30C show the growth pattern of ST with and without peptide at 9-21 mM concentration. […] The plate was incubated in a TECAN Sunrise™ absorbance microplate reader at 37° C., measuring the OD 600 set at every 30 mins for 12 hrs., followed by bacterial enrichment to determine the minimal bactericidal concentration log CFU/mL.
# [4] = tested on: various probiotic strains; format: cell-based; conditions: at MIC (PN3 12 mM, PN5 15 mM)
# Procedure: FIGS. 16A-16B show the effect of the peptide on the growth of various probiotic strains after treating at their minimal inhibitory concentrations of 12 and 15 mM of PN3 and PN5, respectively. […] FIG. 16B the effect of 15 mM of PN5 peptide. The bacteria (5×10^5 CFU/mL) were treated with peptides and grown at 37° C. for 24 hrs in an anaerobic condition except for E. coli Nissel 1917 and E. coli G58-1, which has grown in aerobic conditions for 12 hrs. After incubation, serially dilute the culture and counted the CFU/mL Bacterial inhibition percentage was calculated by comparing with no peptide treated control.
# APEC O78 [5] = assay: Resistance after 13 passages at 0.75×MIC; format: cell-based, E. coli
# Procedure: FIGS. 18A-18B show the growth of APEC O78 at MIC of the peptides after growing the bacteria for 13 passages with a sublethal concentration (0.75×MIC) of peptides. […] The OD 600 was measured at every 30 mins for 12 hrs.
# [6] = tested on: various serovars of Salmonella; assay: PN3 and PN5 on various serovars of Salmonella; format: cell-based; conditions: at MBC, 12 hrs
# Procedure: Salmonella serovars (5×10^5 CFU/mL) were treated with peptides and grown at 37° C. for 12 hrs. In addition, bacterial inhibition percentage was calculated by comparing with no peptide control. […] Red: Bactericidal, Green: Non bactericidal.
# FIGS. 32A-32B show the growth inhibition percentage of various serovars of Salmonella after treating with minimal inhibitory concentrations of peptides. […] Salmonella serovars (5×10^5 CFU/mL) were treated with peptides and grown at 37° C. for 12 hrs. In addition, bacterial inhibition percentage was calculated by comparing with no peptide control.
# APEC O78 [7] = assay: Agar-well diffusion assay; format: cell-based, E. coli; conditions: whole culture, 24 h
# Procedure: Agar-well diffusion assay: To determine the inhibitory activity of commensal and probiotic bacteria against APEC, agar-well diffusion assay was conducted as described previously. Briefly, LB agar plate was spread with 100 μL of APEC O78 (10^7 CFU/mL) and 100 μL of fully grown stationary phase whole cultures (adjusted to OD600: 1) of commensal and probiotic bacteria were aliquoted into the wells bored in the agar plate. The plate was incubated at 37° C., and zone of inhibition was measured at 12 h and 24 h post-incubation. The inhibitory activity of L. rhamnosus GG and B. lactis Bb12 was also tested with different culture volumes (200 μL, 150 μL and 50 μL) and against other APEC serotypes as described above. Assay was also conducted with cell-free supernatants (CF Ss) of L. rhamnosus GG and B. lactis Bb12 and supernatant-free L. rhamnosus GG and B. lactis Bb12 itself. CFSs were prepared by centrifugation of whole cultures at 10,000×g for 10 min at 4° C. followed by filtration through 0.22 μm filter. The supernatant-free cultures were washed once and resuspended in PBS to check the activity of L. rhamnosus GG and B. lactis Bb12 itself. Two independent experiments were conducted. […]
# multiple APEC serotypes = format: cell-based, E. coli
# Procedure: Anti-APEC spectrum determination: Peptides (P1, P2, and P3) were tested against multiple APEC serotypes/strains to determine their spectrum of activity. Peptides were added at their MICs and the growth inhibitory activity of the peptides was determined as described above.
substance,measurement,setting,value
AESSDTNLVNAKAA [PN-2],Inhibition of APEC growth,APEC,slightly inhibitory
NPRRRERR,MIC,APEC O78 [1],12 mM
AFDNTDTSLDSTFKSA [PN-4],Inhibition of APEC growth,APEC,completely inhibitory
KHTAPK [KHTAPK],MIC,APEC O78 [1],>18 mM
NPSRRERR,MIC,APEC O78 [1],15 mM
VHTKPK [VHTKPK],MIC,APEC O78 [1],>18 mM
NPRRQRRR,MIC against SE,[2],>18 mM
VQAAQAGDTKPIEV [PN-3],Inhibition of APEC growth,APEC,completely inhibitory
same,Minimal inhibitory concentration,APEC O78 [3],12 mM
same,Intracellular APEC,"Intracellular APEC; 0.25 X, untreated 2.98 ± 0.87",2.64 ± 0.23 Log CFU/mL
same,Intracellular APEC,Intracellular APEC; 0.75 X,2.59 ± 0.30 Log CFU/mL
same,Intracellular APEC,Intracellular APEC; 1 X,2.50 ± 0.17 Log CFU/mL
same,Intracellular APEC,Intracellular APEC; 1.5 X,0.00 ± 0.00 Log CFU/mL
same,Biofilm-embedded APEC,Biofilm-embedded APEC,4.21 ± 0.48 Log CFU/mL
same,Minimal bactericidal concentration,ST,21 mM
same,"Growth of B. longum, B. adolescentis, and B. theoiotamicron",[4],promoted the growth
same,"Growth of BB12, E. coli Nissel 1917 and E. coli G58-1",[4],inhibited the growth
same,Growth of LGG,[4],unaffected
same,Bacterial resistance against the peptides,APEC O78 [5],did not cause bacterial resistance
same,Bactericidal effect on eight Salmonella serotypes,[6],kill all the eight serotypes of Salmonella with no viable colony
KDEKK [KDEKK],MIC,APEC O78 [1],12 mM
Bifidobacterium longum,Zone of inhibition,APEC O78 [7],0.0 ± 0.0 mm
KDENK [KDENK],MIC,APEC O78 [1],9 mM
"VHTAPK [Peptide P3, VHTAPK]",Growth inhibition against APEC serotypes,multiple APEC serotypes,39.4-88.4%
same,MIC,APEC O78 [1],18 mM
same,MIC50,APEC O78 [1],16.2 mM
KKTKPK [KKTKPK],MIC,APEC O78 [1],>18 mM
NPRRQERR,MIC,APEC O78 [1],12 mM
PDEKK [PDEKK],MIC against SE,[2],12 mM
same,MIC,APEC O78 [1],9 mM
FSAVALSAVALSKPGHVNA [PN-1],Inhibition of APEC growth,APEC,did not affect the APEC growth
VKTAPK [VKTAPK],MIC,APEC O78 [1],>18 mM
VTDTSGKAGTTKISNV [PN-5],Inhibition of APEC growth,APEC,completely inhibitory
same,Minimal inhibitory concentration,APEC O78 [3],15 mM
same,Intracellular APEC,"Intracellular APEC; 0.25 X, untreated 2.98 ± 0.87",2.34 ± 0.11 Log CFU/mL
same,Intracellular APEC,Intracellular APEC; 0.75 X,2.30 ± 0.00 Log CFU/mL
same,Intracellular APEC,Intracellular APEC; 1 X,0.00 ± 0.00 Log CFU/mL
same,Intracellular APEC,Intracellular APEC; 1.5 X,0.00 ± 0.00 Log CFU/mL
same,Biofilm-embedded APEC,Biofilm-embedded APEC,4.95 ± 0.07 Log CFU/mL
same,Minimal bactericidal concentration,ST,21 mM
same,"Growth of B. longum, B. adolescentis, and B. theoiotamicron",[4],promoted the growth
same,"Growth of BB12, E. coli Nissel 1917 and E. coli G58-1",[4],inhibited the growth
same,Growth of LGG,[4],slightly affected
same,Bacterial resistance against the peptides,APEC O78 [5],did not cause bacterial resistance
same,Bactericidal effect on eight Salmonella serotypes,[6],killed all serotypes except Saintpaul
